# According to paper PMC6368403, “Identification of a bilirubin receptor that may mediate a component of cholestatic itch” (eLife, 2019):
# “And” between values parts separate entries of the source, which are not always exact repeats. Equal values may be shown once.
# Columns and labels:
# [1] = system: murine peritoneal mast cells; experiment: Mouse peritoneal mast cell histamine release assay; assay type: cell-based; details: 100 µM bilirubin
# Method: Adult male mice 8–12 weeks of age were sacrificed through CO2 inhalation. A total of 25 mL of mast cell dissociation media (MCDM; HBSS with 3% fetal bovine serum and 10 mM HEPES, pH 7.2) was chilled on ice before being used to make two sequential peritoneal lavages. Lavages were combined and spun at 200 g. […] Mast cells were recovered in the pellet. Mast cells were re-suspended in DMEM with 10% fetal bovine serum (FBS) and 25 ng/mL recombinant mouse stem cell factor (Sigma). Mast cells were purified as described and allowed to recover for 2 hr at 37°C. Cells were then seeded in 96-well plates coated with […] fibronectin at 300 cells/well. Plates were incubated at 37°C for 45 min before assay. For the assay, all compounds tested were diluted in CIB. Five minutes after compound addition, supernatant was aspirated and frozen at −80°C until histamine levels were determined with an HTRF histamine assay kit (Cisbio Assays) according to the manufacturer’s instructions.
# [2] = molecular target: T1, MRGPRC11 (Mus musculus, UniProt Q8CIP3); experiment: Ca2+ imaging and concentration-Ca2+ response in HEK293 cells expressing MRGPRC11; assay type: cell-based; details: three replicates, Fig 2-N
# T1 construct: expressed in transfected cells
# T1 sequence (Q8CIP3 1-322): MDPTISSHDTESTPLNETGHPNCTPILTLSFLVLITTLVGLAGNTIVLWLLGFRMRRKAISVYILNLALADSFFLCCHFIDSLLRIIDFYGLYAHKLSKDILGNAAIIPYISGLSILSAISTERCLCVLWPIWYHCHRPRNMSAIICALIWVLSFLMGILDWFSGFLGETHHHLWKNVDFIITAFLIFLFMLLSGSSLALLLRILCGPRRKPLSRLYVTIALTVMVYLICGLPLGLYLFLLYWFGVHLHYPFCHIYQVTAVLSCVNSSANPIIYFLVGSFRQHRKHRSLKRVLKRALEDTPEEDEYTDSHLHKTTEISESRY
# Method: All cultured cells were maintained in DMEM supplemented with 10% FBS and 1% Penicillin/Streptomycin at 37°C, 5% CO2. All data included were generated from cells tested for mycoplasma and found to be negative. Cells were imaged in calcium imaging buffer (CIB; 10 mM HEPES, 1.2 mM NaHCO3, 130 mM NaCl, 3 mM KCl, 2.5 mM CaCl2, 0.6 mM MgCl2, 20 mM glucose, and 20 mM sucrose at pH 7.4 and 290–300 mOsm). To monitor changes in intracellular [Ca^2+] ([Ca^2+]i), cells were loaded with either Fura 2-AM (HEK293 cells) or Fluo 4-AM (DRG neurons and mast cells) for 30 min in the dark at 37°C in CIB just prior to imaging. With Fura 2-AM, emission at 510 nm was monitored from excitation at both 340 nm and 380 nm. With Fluo 4-AM, emission at 520 nm was monitored from excitation at 488 nm. Cells were identified as responding if the intracellular [Ca^2+] rose by either 50% compared to baseline or 50% compared to the [Ca^2+]i change assayed during addition of 50 mM KCl (neurons only). Damaged, detached, high-baseline, and motion-activated cells were excluded from analysis.
# In initial screens, HEK293 cells stably expressing the murine G-protein alpha-subunit Gα15, a unique Gα protein that non-selectively couples a large variety of GPCRs to phospholipase C ^30, were plated on poly-D-lysine-coated coverslips and transiently transfected with constructs encoding the MRGRPR of interest. 12–24 hr later, cells were loaded with the Fura 2-AM. Unless otherwise specified, compounds were perfused into the imaging chamber for approximately thirty seconds after a baseline period was established. Response was then monitored at 5 s intervals for an additional 60 s.
# HEK293 cells stably expressing either MRGPRA1, MRGPRX4, and MRGRPC11 were seeded in poly-D-lysine-coated 96-well plates at 10,000 cells/well. Cells were loaded with Fura 2–AM, washed twice, and maintained in CIB. Haem metabolites were freshly dissolved in DMSO in dim light and then diluted into a buffer comprised of 20 mM Tris and 150 mM NaCl at pH 8.8. Potential changes in pH were evaluated prior to each experiment. EC50 values were determined from dose-responses performed in triplicate, repeated 2–4 times. To determine potential antagonism by QWF against bilirubin, cells were treated with varying doses of QWF for 1 min in CIB prior to application of agonist.
# HEK293 stable cell lines expressing GFP-tagged MRGPRA3, MRGPRC11, MRGPRD, MRGPRX1, and MRGPRX2 were generated in previously described reports ([Liu et al., 2009]; [Liu et al., 2012]; [McNeil et al., 2015]). Briefly, plasmids containing the receptor of interest were transfected into HEK cells using Lipofectamine 3000. After 3 days, cells were then selected using 0.5 mg/mL G418. After 3 weeks, monoclonal colonies were established and each the highest expressing clones were identified. For this study, Mrgpra1 and MRGPRX4 were inserted into pEGFP-N1 and transfected into HEK293 cells. MRGPR-positive cells were selected using 0.5 mg/mL G418 for three weeks, after which GFP-positive cells were sorted by FACS and monoclonally expanded. Two lines expressing similar levels of MRGPRA1 and MRGPRX4, as measured by GFP fluorescence, were selected for study.
# [3] = molecular target: T2, MRGPRX4 (Homo sapiens, UniProt Q96LA9); experiment: [35S]GTPγS binding to MRGPRX4 membrane complexes; assay type: biochemical; details: 50 μM bilirubin
# T2 construct: expressed in transfected cells
# Method: (§1) MRGPR activation was determined by measuring binding of a radiolabelled and non-hydrolyzable form of GTP, [^35S]guanosine-5’-(γ-thio)triphosphate ([^35S]GTPγS) as previously described ([Vasavda et al., 2017]). Briefly, 10 µg of crude membrane fractions were diluted into 175 µL assay buffer (50 mM HEPES, 5 mM MgCl2, 100 mM NaCl, 1 mM EDTA, 0.1% […]) supplemented with 10 µM GDP and incubated at room temperature for 5 min. Membranes were then incubated an additional 1 min in a final volume of 199 μL assay buffer supplemented with 50 μM bilirubin. Samples were then brought to 200 μL with the addition of 10 nM [^35S]GTPγS. Samples were incubated for 2 hr at 4°C with gentle agitation. The experiment was terminated by rapid filtration onto GF/B filters and washed three times with wash buffer (50 mM Tris-HCl, 5 mM MgCl2, and 50 mM NaCl at pH 7.4). Filters were then immersed in scintillation cocktail and counted. Nonspecific binding was determined by competition with 10 μM unlabelled GTPγS. GTPγS binding assays were performed as two independent experiments, in triplicate.
# [4] = molecular target: T1, MRGPRC11; experiment: [35S]GTPγS binding to MRGPRC11 membrane complexes; assay type: biochemical; details: 50 μM bilirubin
# Method: as §1
# T2 sequence (Q96LA9 whole entry): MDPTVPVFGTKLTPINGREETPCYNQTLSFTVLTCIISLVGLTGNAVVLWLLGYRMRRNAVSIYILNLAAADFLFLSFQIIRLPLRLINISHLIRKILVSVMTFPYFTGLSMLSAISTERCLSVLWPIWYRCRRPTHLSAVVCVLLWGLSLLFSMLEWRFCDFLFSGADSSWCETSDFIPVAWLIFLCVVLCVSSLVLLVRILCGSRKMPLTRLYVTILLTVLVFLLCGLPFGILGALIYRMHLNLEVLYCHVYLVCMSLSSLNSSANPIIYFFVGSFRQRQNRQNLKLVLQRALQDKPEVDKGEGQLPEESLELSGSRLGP
compound,measurement,setting,value
"C=CC1=C(C)/C(=C/c2[nH]c(Cc3[nH]c(/C=C4\NC(=O)C(C)=C4C=C)c(C)c3CCC(=O)O)c(CCC(=O)O)c2C)NC1=O [bilirubin, bilirubin IXα]",Mast cell histamine release,[1],did not elicit a calcium response or induce appreciable histamine release
same,"Ca2+ response (concentration-Ca2+ response curve), replicate values",[2]; [Ligand] 3.90625e-6 M,0
same,"Ca2+ response (concentration-Ca2+ response curve), replicate values",[2]; [Ligand] 7.8125e-6 M,0
same,"Ca2+ response (concentration-Ca2+ response curve), replicate values",[2]; [Ligand] 1.5625e-5 M,0
same,"Ca2+ response (concentration-Ca2+ response curve), replicate values",[2]; [Ligand] 3.125e-5 M,0
same,"Ca2+ response (concentration-Ca2+ response curve), replicate values",[2]; [Ligand] 6.25e-5 M,0
same,"Ca2+ response (concentration-Ca2+ response curve), replicate values",[2]; [Ligand] 0.000125 M,0
same,"Ca2+ response (concentration-Ca2+ response curve), replicate values",[2]; [Ligand] 0.00025 M,0
same,"Ca2+ response (concentration-Ca2+ response curve), replicate values",[2]; [Ligand] 0.0005 M,0
same,GTP binding to MRGPRX4 membrane complexes,[3],increased GTP binding
same,[35S]GTPγS binding,[3]; MRGPRX4 membrane complexes (Fig 2K),175 and 229 and 223
same,GTP binding to MRGPRC11 membrane complexes,[4],not to MRGPRC11
same,[35S]GTPγS binding,[4]; MRGPRC11 membrane complexes (Fig 2K),75 and 84 and 78
